Measured values taken from patent publication US11129867B2, “Method of treating cancer cells” (priority 2017, dated 2021).
Where a SMILES comes first, the peptide text is derived from it. The star is where a group is joined. X1 = CN(C)c1ccc2c(-c3ccc(C(=O)*)cc3C(=O)[O-])c3ccc(=[N+](C)C)cc-3oc2c1

What was measured:
phospho-γH2Ax = test: Immunofluorescence staining of phospho-γH2Ax (DNA damage); format: cell-based, human
Description: Representative images showing DAPI-labelled nucleus (shown in blue) co-stained with phospho-γH2Ax (green). Ca922 cells were treated with 25 μM TMR-GBP for 12 or 24 hours followed by immunofluorescence staining. Foci in the nucleus indicated damaged DNA. Scale bar indicates 10 μm.
At least 20 cells were counted in each category. Bars indicate standard deviations from three independent experiments.
(§1) Immunofluorescence Staining
(§2) Cells grown on coverslips were washed with 1×PBS and fixed by PTEMF buffer (20 mM PIPES pH 6.8, 0.2% Triton X-100, 10 mM EGTA, 1 mM MgCl2, and 4% formaldehyde) or 4% paraformaldehyde for 10 minutes at room temperature. Then, fixation buffer was replaced with 1×PBST and the cells were washed with 1×PBST for another 10 minutes at room temperature. Coverslips were washed with 1×PBST twice gently and incubated with primary antibodies at room temperature for 1 hour. Next, washed with PBST for three times (2, 2, 5 minutes). Afterwards, coverslips were cultured in Alex Fluor-conjugated secondary antibodies and DAPI at room temperature for 30 minutes, washed three times (2, 2, 5 minutes), rinsed with ddH2O and mounted with mounting medium. Antibodies concentration used in this analysis is 1:1000 dilution. Images were acquired with specific fluorescence wavelength by Leica DMI6000 inverted microscope equipped with HCX PL FL 100λ/NA1.40 objective and EMCCD camera. All images were analyzed by MetaMorph software.

MCF7 = test: WST-8 cell viability assay, MCF7; format: cell-based; conditions: MCF7 (breast cancer), different concentrations, 48 hours, FIG. 3
Description: (§3) Human oral squamous cell carcinoma (OSCC) cell lines, Ca922, OSC20, OECM-1, OC3, CGHNC9, HSC3, plus A549, MDA-MB-231, MCF7, Huh7, HeLa-Kyoto, Detroit 562, H520, H2170, and 293T cells were used in this study. Ca922, CGHNC9, MDA-MB-231, MCF7, Huh7, HeLa-Kyoto, Detroit 562, and 293T cells were all cultured in high-glucose Dulbecco's Modified Eagle Medium (DMEM). OSC20 and HSC3 cells were cultured in Dulbecco's Modified of Eagle's Medium/Ham's F-12 50/50 Mix (1:1). OECM-1, A549, H520, and H2170 cells were grown in RPMI-1640 medium. All culture media were supplemented with 10% fetal bovine serum (FBS) and 1% penicillin-streptomycin. OC3 cells were cultured in 1:1 DMEM/KSFM (keratinocyte serum-free medium) with supplied supplement of Bovine pituitary extract (BPE) and epidermal growth factor (EGF) followed by instruction. All the cells in this study were maintained at 37° C. in humidified atmosphere containing 5% CO2.
(§4) WST-8 [2-(2-methoxy-4-nitrophenyl)-3-(4-nitrophenyl)-5-(2,4-disulfophenyl)-2H-tetrazolium, monosodium salt] cell viability assay
(§5) Cells were seeded into 96 well plate and incubated at 37° C. overnight. […] The amount of formazan produced is proportional to the number of live cells and is expressed as cellular viability. […] Cell viability was measured at the absorbance of 450/655 nm wavelength by ELISA reader.

[1] = tested on: mitochondria of Ca922 cells; test: Immunofluorescence staining of TOM20 and cytochrome-c; format: cell-based, human; conditions: Ca922, different dose, 8 or 24 hours, FIG. 7
Description: Ca922 cells were treated with different doses of TMR-GBP for 8 or 24 hours and then fixed with 4% formaldehyde. Representative images showing the staining of mitochondria marker TOM20 and cytochrome-c. Scale bar indicates 10 μm.
as §1, §2

[2] = tested on: Poly (ADP-ribose) polymerase (PARP); test: Western blotting of PARP cleavage; format: cell-based, human
Description: Protein expression of Poly (ADP-ribose) polymerase (PARP) were examined in Ca922 cells treated with 25 μM TMR-GBP for 6 hours.
Protein lysate of Ca922 cells treated with TMR-GBP 25 μM were blotted with antibodies against Caspase-3, Caspase-7, Caspase-9 and Poly (ADP-ribose) polymerase (PARP). Representative blots are shown.
Western Blotting Analysis
Cells were harvested by trypsion or scratch and lysed in RIPA buffer (50 mM Tris-HCl, pH 7.4, 150 mM NaCl, 0.1% SDS, 0.5% Sodium deoxycholate, 1% NP-40) supplemented with 1× protease inhibitor cocktail. Sample was incubated on ice for 30 minutes and scraped every 10 minutes. Centrifuge at 13,000 rpm at 4° C. for 15 minutes, then collect supernatant for analysis. Protein concentration was determined by Bradford assay. First, 5× Bradford assay dye reagent was diluted into […], and mixture with RIPA (as standard) or samples. Concentration was obtained by spectrophotometer measurement. Equal volume of 2× laemmli buffer containing β-ME was added into protein lysate for goal concentration. Protein samples were boiled at 100° C. for 15 minutes and resolved by 10% SDS-PAGE gel or 4%-15% gradient gel. […] Washing the membrane three times with 1×PBST for every 5 minutes, protein band was detected by modified ECL (ddH2O, […] Tris pH8.0, 200 μM p-coumaric acid, 1.25 mM luminal, 0.001% H2O2) with ImageQuant LAS 4000 digital imaging system.

Ca922 cells = test: Annexin V staining with flow cytometry; format: cell-based, human; conditions: Ca922, 12.5 μM TMR-GBP, FIG. 6B
Description: […] Diluted 10× Binding Buffer to 1× using distilled water. Washed cells once in PBS, then once in 1× Binding Buffer. Resuspended cells in 1× Binding Buffer at 1-5×10^6/mL. Next, added 5 μL of fluorochrome-conjugated Annexin V to 100 μL of the cell suspension. Sample was incubated 10-15 minutes at room temperature. Afterwards, washed cells in 1× Binding Buffer and resuspend in 200 μL of 1× Binding Buffer. Analyzed by flow cytometry within 4 hours, storing at 2-8° C. in the dark.

293T = test: WST-8 cell viability assay, 293T; format: cell-based; conditions: 293T (embryonic kidney), different concentrations, 48 hours, FIG. 3
Description: as §3, §4, §5

SMILES: CN(C)c1ccc2c(-c3ccc(C(=O)N[C@@H](CC(N)=O)C(=O)N[C@@H](Cc4ccc(O)cc4)C(=O)N[C@@H](CCCNC(=N)N)C(=O)N[C@@H](Cc4c[nH]c5ccccc45)C(=O)N[C@@H](CCCNC(=N)N)C(=O)N[C@@H](CS)C(=O)N[C@@H](CCCCN)C(=O)N[C@@H](CC(N)=O)C(=O)N[C@@H](CCC(N)=O)C(=O)N[C@@H](CC(N)=O)C(=O)O)cc3C(=O)[O-])c3ccc(=[N+](C)C)cc-3oc2c1 [TMR-GBP] (X1-NYRWRCKNQN-OH; N-terminus and C-terminus assumed)
- phospho-γH2Ax foci in the nucleus (DNA damage) (phospho-γH2Ax; Ca922, 25 μM TMR-GBP, 12 or 24 hours, FIG. 10A): many foci were observed accumulating in the nucleus
- increase of nuclear γH2Ax intensity (phospho-γH2Ax; Ca922, 25 μM, over control cells or cells co-treated with TMR-GBP and NAC, FIG. 10B): 4 folds
- phospho-γH2Ax signal, co-treated with NAC (phospho-γH2Ax; Ca922, co-treated with TMR-GBP and NAC, FIG. 10A): hardly detected any phospho-γH2Ax signal
- cell viability (MCF7): not markedly affected
- cytochrome-c release [1]: Cytochrome-c release upon TMR-GBP treatment was also detected
- morphology of mitochondria (TOM20) [1]: became fragmented when the concentration of TMR-GBP was increased or the treatment time was extended
- PARP cleavage ([2]; Ca922, 25 μM, 6 hours, FIG. 11A): induced PARP cleavage
- PARP cleavage after calpain inhibitor ([2]; Ca922, calpain inhibitor pretreated 30 minutes before TMR-GBP, FIG. 11D): still induced PARP cleavage
- apoptosis by Annexin-V-FITC labeling (Ca922 cells): positively labeled by Annexin-V-FITC
- cell viability (293T): not markedly affected
